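Tested at 5 concentrations; 48 h exposure; 96-well plates; endpoints linearly interpolated, else capped at highest concentration. Abbreviation: GI50, concentration required for 50% inhibition of growth. The concentration for full growth arrest is given as TGI.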
Tests used:
Experiment in all cases: inhibition of tumour cell growth, NCI panel, 48 h
IGROV1 ovarian = tested on: IGROV1 ovarian
K-562 leukemia = tested on: K-562 leukemia
MDA-MB-231 breast = tested on: MDA-MB-231 breast
PC-3 prostate = tested on: PC-3 prostate
ACHN renal = tested on: ACHN renal
OVCAR-3 ovarian = tested on: OVCAR-3 ovarian
A549 NSCLC = tested on: A549 NSCLC
CCRF-CEM leukemia = tested on: CCRF-CEM leukemia
OVCAR-4 ovarian = tested on: OVCAR-4 ovarian
RXF 393 renal = tested on: RXF 393 renal
SK-OV-3 ovarian = tested on: SK-OV-3 ovarian
OVCAR-5 ovarian = tested on: OVCAR-5 ovarian
UACC-257 melanoma = tested on: UACC-257 melanoma
SN12C renal = tested on: SN12C renal
KM12 colon = tested on: KM12 colon
SK-MEL-5 melanoma = tested on: SK-MEL-5 melanoma
SR leukemia = tested on: SR leukemia
CAKI-1 renal = tested on: CAKI-1 renal
MCF7 breast = tested on: MCF7 breast
NCI-H23 lung = tested on: NCI-H23 lung
NCI-H460 lung = tested on: NCI-H460 lung
MOLT-4 leukemia = tested on: MOLT-4 leukemia
HOP-92 NSCLC = tested on: HOP-92 NSCLC
COLO 205 colon = tested on: COLO 205 colon
SNB-19 CNS = tested on: SNB-19 CNS
SK-MEL-2 melanoma = tested on: SK-MEL-2 melanoma
DU-145 prostate = tested on: DU-145 prostate
NCI-H522 lung = tested on: NCI-H522 lung
T-47D breast = tested on: T-47D breast

COc1ccc(/C=N/NC(=O)c2[nH]c3ccc(Br)cc3c2-c2ccccc2)o1
GI50 (IGROV1 ovarian): 314 nM
TGI (IGROV1 ovarian): 16700 nM
GI50 (K-562 leukemia): 55 nM
TGI (K-562 leukemia): > 72200 nM
GI50 (MDA-MB-231 breast): 148 nM
TGI (MDA-MB-231 breast): 2190 nM
GI50 (PC-3 prostate): 386 nM
TGI (PC-3 prostate): > 34400 nM
GI50 (ACHN renal): 203 nM
TGI (ACHN renal): 20700 nM
GI50 (OVCAR-3 ovarian): 284 nM
TGI (OVCAR-3 ovarian): 2840 nM
GI50 (A549 NSCLC): 251 nM
TGI (A549 NSCLC): > 49900 nM
GI50 (CCRF-CEM leukemia): 136 nM
TGI (CCRF-CEM leukemia): > 55200 nM
GI50 (OVCAR-4 ovarian): 265 nM
TGI (OVCAR-4 ovarian): 29300 nM
GI50 (RXF 393 renal): 1100 nM
TGI (RXF 393 renal): 17800 nM
GI50 (SK-OV-3 ovarian): 455 nM
TGI (SK-OV-3 ovarian): 40200 nM
GI50 (OVCAR-5 ovarian): 161 nM
TGI (OVCAR-5 ovarian): 17600 nM
GI50 (UACC-257 melanoma): 258 nM
TGI (UACC-257 melanoma): 23200 nM
GI50 (SN12C renal): 125 nM
TGI (SN12C renal): 8310 nM
GI50 (KM12 colon): 311 nM
TGI (KM12 colon): 4840 nM
GI50 (SK-MEL-5 melanoma): 163 nM
TGI (SK-MEL-5 melanoma): 391 nM
GI50 (SR leukemia): 114 nM
TGI (SR leukemia): 19100 nM
GI50 (CAKI-1 renal): 295 nM
TGI (CAKI-1 renal): 21000 nM
GI50 (MCF7 breast): 90.7 nM
TGI (MCF7 breast): 11100 nM
GI50 (NCI-H23 lung): 300 nM
TGI (NCI-H23 lung): 9900 nM
GI50 (NCI-H460 lung): 248 nM
TGI (NCI-H460 lung): 1590 nM
GI50 (MOLT-4 leukemia): 59.9 nM
TGI (MOLT-4 leukemia): 21900 nM
GI50 (HOP-92 NSCLC): 953 nM
TGI (HOP-92 NSCLC): 10100 nM
GI50 (COLO 205 colon): 196 nM
TGI (COLO 205 colon): 377 nM
GI50 (SNB-19 CNS): 323 nM
TGI (SNB-19 CNS): 19700 nM
GI50 (SK-MEL-2 melanoma): 134 nM
TGI (SK-MEL-2 melanoma): 9220 nM
GI50 (DU-145 prostate): 307 nM
TGI (DU-145 prostate): 14300 nM
GI50 (NCI-H522 lung): 21.6 nM
TGI (NCI-H522 lung): 59.2 nM
GI50 (T-47D breast): 2950 nM

From PubChem BioAssay (NCI)
